Laboratory results as given in US12297184B2 (Tesaro, Inc., priority 2018, dated 2025).
Converted amounts (≈) assume the structure as drawn.

Legend:
[1] = Hygroscopicity by gravimetric (GVS) or dynamic (DVS) vapour sorption; type: physicochemical; conditions: for % Mass increase: at 90% RH, 25° C., GVS (camphorates, camsylate), DVS (mandelate); for Hygroscopicity (in words): from % mass increase at 90% RH
Method: Typically, approximately 10-20 mg of sample was placed into a mesh vapour sorption balance pan and loaded into an IGASorp Moisture Sorption Analyser balance by Hiden Analytical. The sample was subjected to a ramping profile from 40-90% relative humidity (RH) at 10% increments, maintaining the sample at each step until a stable weight had been achieved (98% step completion, minimum step length 30 minutes, maximum step length 60 minutes) at 25° C. After completion of the sorption cycle, the sample was dried using the same procedure to 0% RH, and finally taken back to the starting point of 40% RH. Two cycles were performed. The weight change during the sorption/desorption cycles were plotted, allowing for the hygroscopic nature of the sample to be determined.
Typically, approximately 10 mg of sample was placed into a mesh vapor sorption balance pan and loaded into a DVS-1/DVS Intrinsic/DVS Advantage dynamic vapor sorption balance by Surface Measurement Systems. The sample was subjected to a ramping profile from 40-90% relative humidity (RH) at 10% increments, maintaining the sample at each step until a stable weight had been achieved (dm/dt 0.004%, minimum step length 30 min, maximum step length 500 min) at 25° C. After completion of the sorption cycle, the sample was dried using the same procedure to 0% RH and then a second sorption cycle back to 40% RH. Two cycles were performed. The weight change during the sorption/desorption cycles were plotted, allowing for the hygroscopic nature of the sample to be determined.
GVS was performed on the crystalline solids produced in Examples land 3. DVS was performed on the crystalline solids produced in Example 2. Table 6 below summarizes the % mass increase observed at 90% RH for the samples.

[2] = for Solubility Water / Solubility pH 1 / Solubility pH 4.5 / Solubility pH 6.8: 24 h
Method: (§1) In an initial procedure (performed in triplicate), the salts were added in small aliquots to deionised water or to buffer solutions (10 mL) until saturation was achieved (˜20 mg was initially added), and the resulting slurry was shaken at 37° C. for 24 h. The following buffers (50 mM in each case) were used: • pH 1 25 mL KCl solution (1.49 g dissolved in 100 mL water) and 42.5 mL HCl solution (1.66 mL of concentrated HCl (˜37%) made up to 100 mL with water) were added together and made up to 100 mL with water; • pH 4.5 anhydrous sodium acetate (1.07 g) was dissolved in water (about 150 mL) before adding 5.9 mL acetic acid solution (11.6 mL glacial acetic acid made up to 100 mL with water). The resulting solution was made up to 500 mL with water; and • pH 6.8 25 mL of KH2PO4 solution (2.72 g dissolved in about 80 mL water and made up to 100 mL with water) and 11.2 mL of NaOH solution (800 mg of sodium hydroxide was dissolved and diluted to 100 mL with water) were added together and made up to 100 mL with water.
(§2) Any solids which were isolated by filtration were assessed by XRPD to determine whether the form of the material had changed.
(§3) The solubility assessment of these samples was repeated using the following procedure (samples prepared in triplicate):
(§4) The appropriate salt (30 mg) was weighed into a vial and water or buffer solution (1 mL) was added. The samples were shaken at 37° C. for 24 h. After 1 h and after about 17 h, further salt was added to the mandelate samples (except those in pH 1 buffer solution) to give an approximate 50-60 mg of solids. […] The samples were analysed as described above.

physchem = conditions: 37 °C, thermodynamic from solid
Method: as §1, §2, §3, §4

[3] = drug substance; cited from earlier work
PARP activity = conditions: read-out: inhibition of PARP activity EC50; whole cell assay; cited from earlier work
[4] = test system: cancer cells having mutant BRCA1 and BRCA2; conditions: read-out: inhibition of proliferation CC50; cited from earlier work

Row | Compound | % Mass increase [1] | Solubility Water [2] | Solubility pH 1 [2] | Solubility pH 4.5 [2] | Solubility pH 6.8 [2] | Hygroscopicity (in words) [1] | further results
1 | NC(=O)c1cccc2cn(-c3ccc(C4CCCNC4)cc3)nc12 [(−)-Camphorate, 2-{4-[(3S)-piperidin-3-yl]phenyl}-2H-indazole-7-carboxamide (niraparib) (1S,3R)-(−)-camphorate] | ~0.2% |  |  |  |  |  | 
2 | NC(=O)c1cccc2cn(-c3ccc(C4CCCNC4)cc3)nc12 [(+)-Camphorate, 2-{4-[(3S)-piperidin-3-yl]phenyl}-2H-indazole-7-carboxamide (niraparib) (1R,3S)-(+)-camphorate] | ~0.3% | 200 µg/mL (≈ 0.624 mM) | 21.4 mg/mL | 0.3 mg/mL | 1.2 mg/mL |  | 
3 | NC(=O)c1cccc2cn(-c3ccc(C4CCCNC4)cc3)nc12 [Camsylate, 2-{4-[(3S)-piperidin-3-yl]phenyl}-2H-indazole-7-carboxamide (niraparib) (1S)-(+)-camsylate] | ~1.3% | 5900 µg/mL (≈ 18.4 mM) | 11.5 mg/mL | 7.1 mg/mL | 1.7 mg/mL | slightly hygroscopic | 
4 | NC(=O)c1cccc2cn(-c3ccc([C@@H]4CCCNC4)cc3)nc12 [Tosylate, 2-{4-[(3S)-piperidin-3-yl]phenyl}-2H-indazole-7-carboxamide 4-methylbenzenesulfonate hydrate 1:1:1] |  |  |  |  |  |  | solubility at 24 h (physchem; pH 1, simulated gastric fluid, Solubility pH 1): 900 µg/mL; solubility at 24 h (physchem; pH 6.8, aqueous buffer, Solubility pH 6.8): 900 µg/mL; solubility at 24 h (physchem; water, Solubility Water): 500 µg/mL; Aqueous solubility (background statement) [3]: low aqueous solubility; Hygroscopicity (background statement) [3]: non-hygroscopic
5 | NC(=O)c1cccc2cn(-c3ccc(C4CCCNC4)cc3)nc12 [Mandelate, 2-{4-[(3S)-piperidin-3-yl]phenyl}-2H-indazole-7-carboxamide (niraparib) (R)-(−)-mandelate] | ~0.07% | 45400 µg/mL (≈ 142 mM) | 163.1 mg/mL | 53.8 mg/mL | 7.8 mg/mL | not hygroscopic | 
6 | camphorate |  |  |  |  |  | not hygroscopic | Solubility (in words, reading of Table 8) ([2]; comparison with tosylate salt, especially in low pH media): greater solubility than the tosylate salt
7 | NC(=O)c1cccc2cn(-c3ccc([C@@H]4CCCNC4)cc3)nc12 [Niraparib, 2-{4-[(3S)-piperidin-3-yl]phenyl}-2H-indazole-7-carboxamide] |  |  |  |  |  |  | EC50 (PARP activity): 4 nM; CC50 [4]: 10 to 100 nM
